Results as given in patent US10683311B2 (priority 2015, dated 2020).

Legend:
Pyricularia oryzae = assay: microbe, parasite or virus in culture; assay type: cell-based; conditions: for Efficacy: inhibition of fungal growth, liquid culture; for inhibition at 20 ppm: Pyricularia oryzae, 120 h, read-out: efficacy (inhibition of fungal growth)
[1] = log P by HPLC on reversed-phase column (C18), EEC Directive 79/831 Annex V.A8; assay type: physicochemical; conditions: for chromatographic logP: reversed-phase HPLC column (C18)
Experimental: In table 1, the log P values were determined in accordance with EEC Directive 79/831 Annex V.A8 by HPLC (High Performance Liquid Chromatography) on a reversed-phase column (C18), using the methods described below:
Method A: temperature: 40° C.; mobile phases: 0.1% aqueous formic acid and acetonitrile; linear gradient from 10% acetonitrile to 95% acetonitrile;
Method B: temperature: 40° C.; mobile phases: 0.001 molar ammonium acetate solution in water and acetonitrile; linear gradient from 10% acetonitrile to 95% acetonitrile.
Calibration was carried out using unbranched alkan-2-ones (comprising 3 to 16 carbon atoms) with known log P values (determination of the log P values by the retention times using linear interpolation between two successive alkanones). lambda-max-values were determined using UV-spectra from 200 nm to 400 nm and the peak values of the chromatographic signals.

[2] = Method A: 40° C., 0.1% aqueous formic acid and acetonitrile

Compound: C[Si](C)(C)c1cc(F)ccc1Oc1ccnc2c(Cl)cccc12 [CMP2, 8-chloro-4-[4-fluoro-2-(trimethylsilyl)phenoxy]quinoline, reference compound]
- Efficacy (Pyricularia oryzae; 1 ppm, 5 days incubation): 0%
- efficacy (inhibition of fungal growth) (Pyricularia oryzae; 4 ppm of active ingredient, 5 days incubation): much lower efficacy
- Efficacy (Pyricularia oryzae; 4 ppm, 5 days incubation): 46%
- Efficacy (Pyricularia oryzae; 20 ppm, 5 days incubation): 93%

Compound: C[Si](C)(C)c1ccccc1Oc1cnc2ccccc2c1 [I.001, 3-[2-(trimethylsilyl)phenoxy]quinoline]
- chromatographic logP [1, 2]: 5.17
- inhibition at 20 ppm (Pyricularia oryzae): 90 to 100%

Compound: C[Si]1(c2c(F)cccc2Oc2cnc3ccccc3c2)CCC1 [I.008, 3-[3-fluoro-2-(1-methylsiletan-1-yl)phenoxy]quinoline]
- chromatographic logP [1, 2]: 5.39
- inhibition at 20 ppm (Pyricularia oryzae): 90 to 100%

Compound: C[Si]1(C)OCc2cccc(Nc3cnc4ccccc4c3)c21 [I.010, N-(1,1-dimethyl-1,3-dihydro-2,1-benzoxasilol-7-yl)quinolin-3-amine]
- chromatographic logP ([1]; Method B: 40° C., 0.001 molar ammonium acetate solution in water and acetonitrile): 3.15
- inhibition at 20 ppm (Pyricularia oryzae): 80 to 89%

Compound: C[Si](C)(C)c1cc(F)ccc1Oc1cnc2c(Cl)cccc2c1 [I.019]
- logP [1, 2]: 5.62
- Efficacy (Pyricularia oryzae; 1 ppm, 5 days incubation): 45%
- Efficacy (Pyricularia oryzae; 4 ppm, 5 days incubation): 98%
- Efficacy (Pyricularia oryzae; 20 ppm, 5 days incubation): 97%

Compound: Cc1nc2c(F)c(F)ccc2cc1Oc1ccccc1[Si](C)(C)O [I.026, {2-[(7,8-difluoro-2-methylquinolin-3-yl)oxy]phenyl}(dimethyl)silanol]
- chromatographic logP [1, 2]: 3.51
- inhibition at 20 ppm (Pyricularia oryzae): 90 to 100%

Compound: Cc1nc2c(F)c(F)ccc2cc1Oc1cccc(F)c1[Si](C)(C)F [I.032, 7,8-difluoro-3-{3-fluoro-2-[fluoro(dimethyl)silyl]phenoxy}-2-methylquinoline]
- chromatographic logP [1, 2]: 4.75
- inhibition at 20 ppm (Pyricularia oryzae): 90 to 100%

Compound: Fc1ccc2nc(Oc3ccccc3Br)cnc2c1F [IIb.01]
- logP ([1]; logP Method A): 3.92

Compound: Cc1nc2c(F)c(F)ccc2nc1Oc1ccccc1Br [IIb.02]
- logP ([1]; logP Method A): 4.38

Compound: Cc1cccc(Br)c1Oc1nc2ccc(F)c(F)c2nc1C [IIb.03]
- logP ([1]; logP Method A): 4.80

Compound: Cc1nc2c(F)c(F)ccc2nc1Oc1c(F)cccc1Br [IIb.04]
- logP ([1]; logP Method A): 2.67

Compound: Cc1nc2c(F)c(F)ccc2nc1Oc1c(Cl)cccc1Br [IIb.05]
- logP ([1]; logP Method A): 4.87

Compound: Cc1ccc(Oc2nc3ccc(F)c(F)c3nc2C)c(Br)c1 [IIb.09]
- logP ([1]; logP Method A): 4.92

Compound: Cc1nc2c(F)c(F)ccc2nc1Oc1ccc(F)cc1Br [IIb.10]
- logP ([1]; logP Method A): 4.54

Compound: Cc1nc2c(F)c(F)ccc2nc1Oc1ccc(Cl)cc1Br [IIb.11]
- logP ([1]; logP Method A): 5.16

Compound: Cc1cccc(Oc2nc3ccc(F)c(F)c3nc2C)c1Br [IIb.12]
- logP ([1]; logP Method A): 4.85

Compound: COc1cccc(Oc2nc3ccc(F)c(F)c3nc2C)c1Br [IIb.13]
- logP ([1]; logP Method A): 4.19

Compound: Fc1cccc(Oc2cnc3ccccc3n2)c1Br [IIb.14]
- logP ([1]; logP Method A): 3.78

Compound: Fc1cccc(Oc2cnc3c(F)c(F)ccc3n2)c1Br [IIb.15]
- logP ([1]; logP Method A): 3.97

Compound: Cc1nc2c(F)c(F)ccc2nc1Oc1cccc(F)c1Br [IIb.16]
- logP ([1]; logP Method A): 4.44

Compound: Cc1nc2ccccc2nc1Oc1cccc(F)c1Br [IIb.17]
- logP ([1]; logP Method A): 4.11

Compound: Cc1nc2c(F)c(F)ccc2nc1Oc1cccc(Cl)c1Br [IIb.18]
- logP ([1]; logP Method A): 4.82

Compound: N#Cc1cc(Br)c(Oc2cnc3c(F)c(F)ccc3n2)cc1F [IIb.19]
- logP ([1]; logP Method A): 3.81

Compound: Cc1nc2c(F)c(F)ccc2nc1Oc1cc(C#N)ccc1Br [IIb.20]
- logP ([1]; logP Method A): 4.03

Compound: N#Cc1ccc(F)c(Br)c1Oc1cnc2c(F)c(F)ccc2n1 [IIb.21]
- logP ([1]; logP Method A): 3.72

Compound: Cc1nc2c(F)c(F)ccc2nc1Oc1cccc(C#N)c1Br [IIb.22]
- logP ([1]; logP Method A): 3.83

Compound: Cc1nc2c(F)c(F)ccc2nc1Oc1cccc(OC(F)(F)F)c1Br [IIb.23]
- logP ([1]; logP Method A): 5.08

Compound: Nc1ccccc1Nc1cnc2ccccc2c1 [IVa.01]
- logP ([1]; logP Method A): 1.28

Compound: Cc1nc2ccccc2cc1Oc1cccc(F)c1N [IVa.02]
- logP ([1]; logP Method A): 2.15

Compound: Nc1ccccc1Oc1cnc2c(F)c(F)ccc2c1 [IVa.03]
- logP ([1]; logP Method A): 2.71

Compound: Nc1c(F)cccc1Oc1cnc2c(F)c(F)ccc2c1 [IVa.04]
- logP ([1]; logP Method A): 3.02

Compound: Cc1nc2c(F)c(F)ccc2cc1Oc1ccccc1N [IVa.05, 2-[(7,8-difluoro-2-methylquinolin-3-yl)oxy]aniline]
- chromatographic logP [1, 2]: 2.99
- chromatographic logP ([1]; logP Method A): 2.99

Compound: Cc1nc2c(F)c(F)ccc2cc1Oc1cccc(F)c1N [IVa.06]
- logP ([1]; logP Method A): 3.27

Compound: Cc1nc2ccccc2cc1Oc1ccccc1N [IVa.07]
- logP ([1]; logP Method A): 1.66

Compound: CC[Si](CC)(CC)c1ccccc1O [IX.01A]
- chromatographic logP ([1]; logP Method A): 4.72

Compound: CC[Si](CC)(CC)c1c(O)cccc1F [IX.02A]
- chromatographic logP ([1]; logP Method A): 4.69

Compound: CC[Si](C)(C)c1ccccc1O [IXa.04]
- logP ([1]; logP Method B): 3.90

Compound: C[Si](C)(Cc1ccccc1)c1ccccc1O [IXa.06]
- logP ([1]; logP Method A): 5.14

Compound: OC(c1cccc(F)c1)c1cnc2ccccc2c1 (stereo not shown) [VII.01A]
- chromatographic logP ([1]; logP Method A): 1.54

Compound: O=C(c1cccc(F)c1)c1cnc2ccccc2c1 [VII.02A]
- chromatographic logP ([1]; logP Method A): 2.73

Compound: Fc1cccc(Nc2cc3ccccc3nc2C(F)F)c1 [VII.03A]
- chromatographic logP ([1]; logP Method A): 3.68

Compound: [O-][S+](c1cccc(F)c1)c1cnc2ccccc2c1 (stereo not shown) [VII.04A]
- chromatographic logP ([1]; logP Method A): 2.1

Compound: O=S(=O)(c1cccc(F)c1)c1cnc2ccccc2c1 [VII.05A]
- chromatographic logP ([1]; logP Method A): 2.68

Compound: Fc1cccc(Oc2cc3ccccc3nc2Cl)c1 [VIIa.01, 2-chloro-3-(3-fluorophenoxy)quinoline]
- chromatographic logP [1, 2]: 3.99
- chromatographic logP ([1]; logP Method A): 3.99

Compound: CCOc1nc2ccccc2cc1Oc1cccc(F)c1 [VIIa.02]
- logP ([1]; logP Method A): 4.74

Compound: CSc1nc2ccccc2cc1Oc1cccc(F)c1 [VIIa.03]
- logP ([1]; logP Method A): 4.92

Compound: Cc1nc2ccccc2cc1Oc1cccc(F)c1 [VIIa.04]
- logP ([1]; logP Method A): 2.96

Compound: Fc1cccc(Oc2cnc3ccccc3c2)c1 [VIIa.05, 3-(3-fluorophenoxy)quinoline]
- chromatographic logP [1, 2]: 3.21
- chromatographic logP ([1]; logP Method A): 3.21

Compound: [O-][n+]1cc(Oc2cccc(F)c2)cc2ccccc21 [VIIa.06, 3-(3-fluorophenoxy)quinoline 1-oxide]
- chromatographic logP [1, 2]: 2.14
- chromatographic logP ([1]; logP Method A): 2.14

Compound: O=[N+]([O-])c1c(F)cccc1Oc1cnc2c(F)c(F)ccc2c1 [Va.01]
- logP ([1]; logP Method A): 3.35

Compound: Cc1nc2c(F)c(F)ccc2cc1Oc1cccc(F)c1[N+](=O)[O-] [Va.02]
- logP ([1]; logP Method A): 3.64

Compound: O=[N+]([O-])c1ccccc1Oc1cnc2c(F)c(F)ccc2c1 [Va.03]
- logP ([1]; logP Method A): 3.06

Compound: Cc1nc2c(F)c(F)ccc2cc1Oc1ccccc1[N+](=O)[O-] [Va.04, 7,8-difluoro-2-methyl-3-(2-nitrophenoxy)quinoline]
- chromatographic logP [1, 2]: 3.37
- chromatographic logP ([1]; logP Method A): 3.42

Compound: O=[N+]([O-])c1c(F)cccc1Oc1cnc2ccccc2c1 [Va.05]
- logP ([1]; logP Method A): 3.13

Compound: Cc1nc2ccccc2cc1Oc1cccc(F)c1[N+](=O)[O-] [Va.06]
- logP ([1]; logP Method A): 3.15

Compound: O=[N+]([O-])c1ccccc1Oc1cnc2ccccc2c1 [Va.07]
- logP ([1]; logP Method A): 1.62

Compound: Cc1nc2ccccc2cc1Oc1ccccc1[N+](=O)[O-] [Va.08]
- logP ([1]; logP Method A): 2.64

Compound: CC1(C)OB(Cc2ccccc2[Si](C)(C)C)OC1(C)C [XIIa.01]
- logP ([1]; logP Method A): 5.68

Compound: CC(=O)COc1ccccc1[Si](C)(C)C [XIV.01, 1-[2-(trimethylsilyl)phenoxy]acetone]
- chromatographic logP [1, 2]: 1.39
- chromatographic logP ([1]; logP Method A): 1.39

Compound: C[Si](C)(c1ccccc1)c1ccccc1CBr [XIa.03]
- logP ([1]; logP Method A): 5.46

Compound: C[Si](C)(c1ccc(Cl)cc1)c1ccccc1CBr [XIa.06, [2-(bromomethyl)phenyl](4-chlorophenyl)dimethylsilane]
- chromatographic logP [1, 2]: 5.94
- chromatographic logP ([1]; logP Method A): 5.94
